Blank lines part the entries; values can stand above or below the molecule they belong to.
Assays:
[1] = target: T1, SIRT3 (Homo sapiens, UniProt Q9NTG7); experiment: SIRT3 enzyme inhibitory assay (fluorescence); format: biochemical; details: dose of 10 μM; mean of three experiments; read-out: SIRT3 percentage inhibitory rate
T1 sequence (Q9NTG7 1-399): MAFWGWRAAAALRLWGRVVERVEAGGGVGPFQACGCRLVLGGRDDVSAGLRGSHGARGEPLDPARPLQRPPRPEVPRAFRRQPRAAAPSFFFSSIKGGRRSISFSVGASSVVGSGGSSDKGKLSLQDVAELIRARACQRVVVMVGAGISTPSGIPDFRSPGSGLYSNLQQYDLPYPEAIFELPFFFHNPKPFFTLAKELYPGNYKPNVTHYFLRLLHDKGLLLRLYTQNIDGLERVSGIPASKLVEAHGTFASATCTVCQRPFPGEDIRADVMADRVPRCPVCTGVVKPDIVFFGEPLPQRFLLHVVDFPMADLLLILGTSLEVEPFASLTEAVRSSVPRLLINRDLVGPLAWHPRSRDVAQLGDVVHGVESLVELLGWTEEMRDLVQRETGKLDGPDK
Protocol: (§1) All of the enzymatic reactions were conducted at 37°C for 30 min. […] The compounds were diluted in 10% DMSO and 5 ul of the dilution was added to each reaction mixture (50 ul). The assay was performed by quantitating the amount of fluorescent product generated from the enzyme reaction. Fluorescence intensity is then analyzed at excitation wavelength of 350–360 nm and emission wavelength of 450–460 nm on a SpectraMax M5 microtiter plate reader. The IC50 values were calculated using Prism GraphPad software.

[2] = system: THP-1 cells; experiment: In vitro antiproliferative CCK-8 assay, THP-1; format: cell-based; details: Homo sapiens, dose of 1 μM, mean of three experiments, read-out: THP-1 percentage inhibitory rate
Protocol: The proliferation of THP-1, MOLM-13, SEM and MV4-11 cells was tested by CCK-8 assay. Briefly, cells were seeded in 96-well plate with about 5 × 10^3 cells in each well. The cells were treated with P6 or Ara-C (0–10 µM) after 24 h of incubation. CCK-8 reagent ([…]) was added to each well after 72 h of incubation, and cells were incubated at 37°C for 4 h. The light absorbance at 450 nm was measured by using an Opsys microplate reader (Dynex Technologirs, Chantilly, VA, United States). Results are illustrated as percent of cell viability normalized to DMSO-treated control cells.

[3] = target: T2, SIRT2 (Homo sapiens, UniProt Q8IXJ6); experiment: SIRT2 enzyme inhibitory assay (fluorescence); format: biochemical; details: for activity at 0.01 µM / activity at 0.033 µM / activity at 0.1 µM / activity at 0.333 µM / activity at 1 µM / activity at 3.3 µM / activity at 10 µM / activity at 33 µM / activity at 100 µM: SIRT2 enzyme activity; for activity at 0.01 µM: 10 nM; for activity at 0.033 µM: 33 nM; for activity at 0.1 µM: 100 nM; for activity at 0.333 µM: 333 nM
T2 sequence (Q8IXJ6 1-389): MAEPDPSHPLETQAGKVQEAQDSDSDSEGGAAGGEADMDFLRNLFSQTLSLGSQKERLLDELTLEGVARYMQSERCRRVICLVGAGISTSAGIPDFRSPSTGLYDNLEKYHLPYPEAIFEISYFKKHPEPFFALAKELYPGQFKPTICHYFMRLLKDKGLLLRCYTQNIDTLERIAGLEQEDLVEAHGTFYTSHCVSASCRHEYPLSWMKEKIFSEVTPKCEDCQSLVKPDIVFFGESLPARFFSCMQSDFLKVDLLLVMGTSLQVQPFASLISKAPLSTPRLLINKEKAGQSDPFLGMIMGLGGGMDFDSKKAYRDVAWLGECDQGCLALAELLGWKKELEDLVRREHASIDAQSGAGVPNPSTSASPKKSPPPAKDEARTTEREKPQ
Protocol: as §1

[4] = target: T3, SIRT1 (Homo sapiens, UniProt Q96EB6); experiment: SIRT1 enzyme inhibitory assay (fluorescence); format: biochemical; details: SIRT1 enzyme activity; for activity at 0.333 µM: 333 nM
T3 sequence (Q96EB6 1-747): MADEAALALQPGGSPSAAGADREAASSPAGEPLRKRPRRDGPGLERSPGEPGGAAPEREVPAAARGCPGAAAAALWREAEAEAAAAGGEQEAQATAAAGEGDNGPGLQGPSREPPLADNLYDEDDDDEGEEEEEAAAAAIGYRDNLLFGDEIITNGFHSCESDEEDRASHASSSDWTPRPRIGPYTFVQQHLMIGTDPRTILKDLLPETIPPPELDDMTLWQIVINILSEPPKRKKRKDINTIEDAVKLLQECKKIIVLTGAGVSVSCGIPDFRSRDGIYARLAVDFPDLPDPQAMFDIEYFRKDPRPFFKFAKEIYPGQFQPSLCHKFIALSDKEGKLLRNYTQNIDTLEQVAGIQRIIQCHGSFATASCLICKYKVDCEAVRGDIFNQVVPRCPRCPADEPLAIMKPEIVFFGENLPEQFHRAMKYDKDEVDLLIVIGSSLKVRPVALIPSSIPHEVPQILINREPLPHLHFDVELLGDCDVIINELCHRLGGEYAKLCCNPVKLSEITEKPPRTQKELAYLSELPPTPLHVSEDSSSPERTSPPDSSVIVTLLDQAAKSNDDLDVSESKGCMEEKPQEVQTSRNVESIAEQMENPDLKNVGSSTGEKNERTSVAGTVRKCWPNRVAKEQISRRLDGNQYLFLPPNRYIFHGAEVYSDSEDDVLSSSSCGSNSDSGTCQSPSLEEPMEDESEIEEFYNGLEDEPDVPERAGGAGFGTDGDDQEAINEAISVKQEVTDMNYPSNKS
Protocol: as §1

Compound: C=CC(=O)Nc1ccc(-c2cc(C(=O)N3CCN(c4ccc(F)cc4)CC3)c3ccccc3n2)cc1 [Compound P1]
inhibition at 10 µM [1]: 20.2 ± 1.22%
inhibition at 1 µM [2]: 32.5 ± 2.56%

Compound: C=CC(=O)Nc1ccc(-c2cc(C(=O)N3CCN(C(=O)OC(C)(C)C)CC3)c3ccccc3n2)cc1 [Compound P2, 4-[2-(4-Acryloylamino-phenyl)-quinoline-4-carbonyl]-piperazine-1-carboxylic acid tert-butyl ester]
inhibition at 10 µM [1]: 23.5 ± 2.13%
inhibition at 1 µM [2]: 26.4 ± 1.55%

Compound: C=CC(=O)Nc1ccc(-c2cc(C(=O)N3CCN(C(C)C)CC3)c3ccccc3n2)cc1 [Compound P3, N-{4-[4-(4-Isopropyl-piperazine-1-carbonyl)-quinolin-2-yl]-phenyl}-acrylamide]
inhibition at 10 µM [1]: 30.6 ± 2.45%
inhibition at 1 µM [2]: 8.78 ± 0.37%

Compound: C=CC(=O)Nc1ccc(-c2cc(C(=O)N3CCN(c4cccc(Cl)c4)CC3)c3ccccc3n2)cc1 [Compound P4, N-(4-{4-[4-(3-Chloro-phenyl)-piperazine-1-carbonyl]-quinolin-2-yl}-phenyl)-acrylamide]
inhibition at 10 µM [1]: 21.8 ± 1.62%
inhibition at 1 µM [2]: 57.9 ± 3.04%

Compound: C=CC(=O)Nc1ccc(-c2cc(C(=O)N3CCN(c4ccc(Cl)cc4)CC3)c3ccccc3n2)cc1 [Compound P5, N-(4-{4-[4-(4-Chloro-phenyl)-piperazine-1-carbonyl]-quinolin-2-yl}-phenyl)-acrylamide]
inhibition at 10 µM [1]: 22.6 ± 1.87%
inhibition at 1 µM [2]: 56 ± 2.66%

Compound: C=CC(=O)Nc1ccc(-c2cc(C(=O)N3CCN(c4ccc(OC)cc4)CC3)c3ccccc3n2)cc1 [Compound P7, N-(4-{4-[4-(4-Methoxy-phenyl)-piperazine-1-carbonyl]-quinolin-2-yl}-phenyl)-acrylamide]
inhibition at 10 µM [1]: 24.9 ± 1.47%
inhibition at 1 µM [2]: 12.4 ± 1.07%

Compound: C=CC(=O)Nc1ccc(-c2cc(C(=O)N3CCN(c4ccccc4OC)CC3)c3ccccc3n2)cc1 [Compound P8, N-(4-{4-[4-(2-Methoxy-phenyl)-piperazine-1-carbonyl]-quinolin-2-yl}-phenyl)-acrylamide]
inhibition at 10 µM [1]: 45.5 ± 3.67%
inhibition at 1 µM [2]: 73.7 ± 3.74%

Compound: C=CC(=O)Nc1ccc(-c2cc(C(=O)N3CCN(CCc4ccccc4)CC3)c3ccccc3n2)cc1 [Compound P9, N-{4-[4-(4-Phenethyl-piperazine-1-carbonyl)-quinolin-2-yl]-phenyl}-acrylamide]
inhibition at 10 µM [1]: 30.2 ± 1.94%
inhibition at 1 µM [2]: 11.7 ± 0.88%

Compound: C=CC(=O)Nc1ccc(-c2cc(C(=O)Nc3ccc(Br)cc3)c3ccccc3n2)cc1 [Compound P10, 2-(4-Acryloylamino-phenyl)-quinoline-4-carboxylic acid (4-bromo-phenyl)-amide]
inhibition at 10 µM [1]: 26.8 ± 1.88%
inhibition at 1 µM [2]: 44.3 ± 1.96%

Compound: NC(=O)c1cccnc1 [Nicotinamide, reference compound]
activity at 0.01 µM ([4]; 10 nM, Repeat2): 98%
activity at 0.033 µM ([4]; 33 nM, Repeat2): 99%
activity at 0.1 µM ([4]; 100 nM, Repeat1): 98%
activity at 0.333 µM ([4]; Repeat1): 99%
activity at 0.333 µM ([4]; Repeat2): 97%
activity at 1 µM ([4]; 1 µM, Repeat1): 100%
activity at 3.3 µM ([4]; Repeat1): 93%
activity at 3.3 µM ([4]; Repeat2): 96%
activity at 10 µM ([4]; Repeat1): 79%
activity at 10 µM ([4]; Repeat2): 73%
activity at 33 µM ([4]; Repeat1): 59%
activity at 33 µM ([4]; Repeat2): 52%
activity at 100 µM ([4]; Repeat1): 10%
activity at 100 µM ([4]; Repeat2): 17%
activity at 0.01 µM ([3]; Repeat1): 100%
activity at 0.01 µM ([3]; Repeat2): 99%
activity at 0.033 µM ([3]; Repeat1): 99%
activity at 0.033 µM ([3]; Repeat2): 98%
activity at 0.1 µM ([3]; Repeat1): 97%
activity at 0.333 µM ([3]; Repeat1): 100%
activity at 0.333 µM ([3]; Repeat2): 100%
activity at 1 µM ([3]; Repeat2): 99%
activity at 3.3 µM ([3]; Repeat1): 92%
activity at 3.3 µM ([3]; Repeat2): 91%
activity at 10 µM ([3]; Repeat1): 79%
activity at 10 µM ([3]; Repeat2): 69%
activity at 33 µM ([3]; Repeat1): 39%
activity at 33 µM ([3]; Repeat2): 43%
activity at 100 µM ([3]; Repeat1): 17%
activity at 100 µM ([3]; Repeat2): 12%

Second part, led by results:

inhibition at 10 µM [1]: 35.7 ± 1.54%
Compound: C=CC(=O)Nc1ccc(-c2cc(C(=O)Nc3ccc(Cl)cc3)c3ccccc3n2)cc1 [Compound P11, 2-(4-Acryloylamino-phenyl)-quinoline-4-carboxylic acid (4-chloro-phenyl)-amide]
inhibition at 1 µM [2]: 58 ± 2.08%

inhibition at 10 µM [1]: 38.9 ± 2.62%
Compound: C=CC(=O)Nc1ccc(-c2cc(C(=O)Nc3ccc(C)cc3)c3ccccc3n2)cc1 [Compound P12, 2-(4-Acryloylamino-phenyl)-quinoline-4-carboxylic acid p-tolylamide]
inhibition at 1 µM [2]: 72.8 ± 3.25%

inhibition at 10 µM [1]: 40.2 ± 2.91%
Compound: C=CC(=O)Nc1ccc(-c2cc(C(=O)Nc3ccc(CC)cc3)c3ccccc3n2)cc1 [Compound P13, 2-(4-Acryloylamino-phenyl)-quinoline-4-carboxylic acid (4-ethyl-phenyl)-amide]
inhibition at 1 µM [2]: 59.9 ± 3.27%

inhibition at 10 µM [1]: 26.4 ± 1.78%
Compound: C=CC(=O)Nc1ccc(-c2cc(C(=O)Nc3ccc(F)cc3)c3ccccc3n2)cc1 [Compound P14, 2-(4-Acryloylamino-phenyl)-quinoline-4-carboxylic acid (4-fluoro-phenyl)-amide]
inhibition at 1 µM [2]: 53.2 ± 4.26%

inhibition at 10 µM [1]: 42.8 ± 1.26%
Compound: C=CC(=O)Nc1ccc(-c2cc(C(=O)Nc3cc(OC)cc(OC)c3)c3ccccc3n2)cc1 [Compound P15, 2-(4-Acryloylamino-phenyl)-quinoline-4-carboxylic acid (3,5-dimethoxy-phenyl)-amide]
inhibition at 1 µM [2]: 49.6 ± 2.52%

activity at 0.01 µM ([3]; Repeat1): 101%
activity at 0.01 µM ([3]; Repeat2): 99%
activity at 0.033 µM ([3]; Repeat1): 99%
activity at 0.033 µM ([3]; Repeat2): 99%
activity at 0.1 µM ([3]; Repeat1): 101%
activity at 0.1 µM ([3]; Repeat2): 101%
activity at 0.333 µM ([3]; Repeat1): 96%
activity at 0.333 µM ([3]; Repeat2): 98%
activity at 1 µM ([3]; Repeat1): 97%
activity at 1 µM ([3]; Repeat2): 98%
activity at 3.3 µM ([3]; Repeat1): 100%
activity at 3.3 µM ([3]; Repeat2): 99%
activity at 10 µM ([3]; Repeat1): 91%
activity at 10 µM ([3]; Repeat2): 86%
activity at 33 µM ([3]; Repeat1): 79%
activity at 33 µM ([3]; Repeat2): 76%
activity at 100 µM ([3]; Repeat1): 34%
activity at 100 µM ([3]; Repeat2): 28%
IC50 ([3]; mean of two experiments): 63.6 ± 4.2 µM
Compound: C=CC(=O)Nc1ccc(-c2cc(C(=O)Nc3ccc(N4CCN(C)CC4)cc3)c3ccccc3n2)cc1 [Compound P19]

From paper PMC9005971, “Discovery of 2-(4-Acrylamidophenyl)-Quinoline-4-Carboxylic Acid Derivatives as Potent SIRT3 Inhibitors” (Frontiers in Chemistry, 2022)
